Assay results: ChEMBL document CHEMBL5518181, “Studies of antibacterial activity (in vitro and in vivo) and mode of action for des-acyl tridecaptins (DATs)” (Eur J Med Chem, 2024)
≈ marks a conversion by molar mass, not a printed value.

Experiments:
Escherichia coli = assay: Antibacterial activity against wild-type Escherichia coli ATCC 25922 assessed as inhibition of bacterial growth incubated for 18 hrs; format: functional; details: read-out: MIC100
Klebsiella pneumoniae = assay: Antibacterial activity against wild-type Klebsiella pneumoniae ATCC 13883 assessed as inhibition of bacterial growth incubated for 18 hrs; format: functional; details: read-out: MIC100
[1] = Hemolytic activity in human red blood cells at 400 ug/ml incubated for 45 mins by spectrophotometric analysis relative to control; format: toxicity, cell-based, Erythrocyte; details: red blood cells (erythrocytes), at 400 µg/mL, read-out: Activity
[2] = Cytotoxicity against human HepG2 cells incubated for 40 hrs by celltiter-glo luminescent cell viability assay; format: toxicity, cell-based

Structure (SMILES)	MIC (Escherichia coli)	MIC (Klebsiella pneumoniae)	hemolysis at 0.75 h, 400 ug/ml [1]	IC50 at 40 h [2]
CC(C)[C@H](NC(=O)[C@H](CCC(=O)O)NC(=O)[C@H](Cc1ccccc1)NC(=O)[C@@H](CCN)NC(=O)[C@H](CCN)NC(=O)[C@H](CO)NC(=O)[C@@H](Cc1c[nH]c2ccccc12)NC(=O)[C@@H](CO)NC(=O)CNC(=O)[C@@H](CCN)NC(=O)[C@H](N)C(C)C)C(=O)N[C@H](C)C(=O)N[C@@H](C)C(=O)O	> 64 µg/mL	64 µg/mL (≈ 47.3 µM)	4.3%	> 170 µg/mL
CC(C)C[C@@H](NC(=O)[C@@H](NC(=O)[C@H](CCC(=O)O)NC(=O)[C@H](Cc1ccccc1)NC(=O)[C@@H](CCN)NC(=O)[C@H](CCN)NC(=O)[C@H](CO)NC(=O)[C@@H](Cc1c[nH]c2ccccc12)NC(=O)[C@@H](CO)NC(=O)CNC(=O)[C@@H](CCN)NC(=O)[C@H](N)C(C)C)C(C)C)C(=O)N[C@@H](C)C(=O)O	64 µg/mL (≈ 45.9 µM)	64 µg/mL (≈ 45.9 µM)	45.9%	161 µg/mL (≈ 115 µM)
CC[C@H](C)[C@@H](NC(=O)[C@@H](NC(=O)[C@H](CCC(=O)O)NC(=O)[C@H](Cc1ccccc1)NC(=O)[C@@H](CCN)NC(=O)[C@H](CCN)NC(=O)[C@H](CO)NC(=O)[C@@H](Cc1c[nH]c2ccccc12)NC(=O)[C@@H](CO)NC(=O)CNC(=O)[C@@H](CCN)NC(=O)[C@H](N)CC(=O)O)C(C)C)C(=O)N[C@@H](C)C(=O)O	> 64 µg/mL	> 64 µg/mL	0%	> 170 µg/mL
CC[C@H](C)[C@@H](NC(=O)[C@@H](NC(=O)[C@H](CCC(=O)O)NC(=O)[C@H](Cc1ccccc1)NC(=O)[C@@H](C)NC(=O)[C@H](CCN)NC(=O)[C@H](CO)NC(=O)[C@@H](Cc1c[nH]c2ccccc12)NC(=O)[C@@H](CO)NC(=O)CNC(=O)[C@@H](CCN)NC(=O)[C@H](N)C(C)C)C(C)C)C(=O)N[C@@H](C)C(=O)O	> 64 µg/mL	64 µg/mL (≈ 46.9 µM)	0%	> 170 µg/mL
CC[C@H](C)[C@@H](NC(=O)[C@@H](NC(=O)[C@H](CCC(=O)O)NC(=O)[C@H](Cc1ccccc1)NC(=O)[C@@H](CCN)NC(=O)[C@H](CCN)NC(=O)[C@H](CO)NC(=O)[C@@H](Cc1c[nH]c2ccccc12)NC(=O)[C@@H](CO)NC(=O)[C@H](CCN)NC(=O)[C@@H](CCN)NC(=O)[C@H](N)C(C)C)C(C)C)C(=O)N[C@@H](C)C(=O)O	32 µg/mL (≈ 22.3 µM)	64 µg/mL (≈ 44.5 µM)	0.3%	> 170 µg/mL
CC[C@H](C)[C@@H](NC(=O)[C@H](C)NC(=O)[C@H](CCC(=O)O)NC(=O)[C@H](Cc1ccccc1)NC(=O)[C@@H](CCN)NC(=O)[C@H](CCN)NC(=O)[C@H](CO)NC(=O)[C@@H](Cc1c[nH]c2ccccc12)NC(=O)[C@@H](CO)NC(=O)CNC(=O)[C@@H](CCN)NC(=O)[C@H](N)C(C)C)C(=O)N[C@@H](C)C(=O)O	> 64 µg/mL	64 µg/mL (≈ 46.8 µM)	0.8%	58 µg/mL (≈ 42.4 µM)
CC[C@H](C)[C@@H](NC(=O)[C@@H](NC(=O)[C@H](CCC(=O)O)NC(=O)[C@H](Cc1ccccc1)NC(=O)[C@@H](CCN)NC(=O)[C@H](CCN)NC(=O)[C@H](CO)NC(=O)[C@@H](Cc1c[nH]c2ccccc12)NC(=O)[C@@H](CO)NC(=O)CNC(=O)[C@@H](CCN)NC(=O)[C@@H](C)NC(=O)[C@H](C)N)C(C)C)C(=O)N[C@@H](C)C(=O)O	64 µg/mL (≈ 44.5 µM)	32 µg/mL (≈ 22.3 µM)	1.3%	> 170 µg/mL
CC[C@H](C)[C@@H](NC(=O)[C@@H](NC(=O)[C@H](CCC(=O)O)NC(=O)[C@H](Cc1ccccc1)NC(=O)[C@@H](CCN)NC(=O)[C@H](CCN)NC(=O)[C@H](CO)NC(=O)[C@@H](C)NC(=O)[C@@H](CO)NC(=O)CNC(=O)[C@@H](CCN)NC(=O)[C@H](NC(=O)[C@H](C)N)C(C)C)C(C)C)C(=O)N[C@@H](C)C(=O)O	> 64 µg/mL	> 64 µg/mL	0%	> 170 µg/mL
CC[C@H](C)[C@@H](NC(=O)[C@@H](NC(=O)[C@H](CCC(=O)O)NC(=O)[C@H](Cc1ccccc1)NC(=O)[C@@H](CCN)NC(=O)[C@H](CCN)NC(=O)[C@H](C)NC(=O)[C@@H](Cc1c[nH]c2ccccc12)NC(=O)[C@@H](CO)NC(=O)CNC(=O)[C@@H](CCN)NC(=O)[C@H](N)C(C)C)C(C)C)C(=O)N[C@@H](C)C(=O)O	> 64 µg/mL	> 64 µg/mL	0%	> 170 µg/mL
CC[C@H](C)[C@@H](NC(=O)[C@@H](NC(=O)[C@H](CCC(=O)O)NC(=O)[C@H](Cc1ccccc1)NC(=O)[C@@H](CCN)NC(=O)[C@H](CCN)NC(=O)[C@H](CO)NC(=O)[C@@H](Cc1c[nH]c2ccccc12)NC(=O)[C@@H](CC(=O)O)NC(=O)CNC(=O)[C@@H](CCN)NC(=O)[C@H](N)C(C)C)C(C)C)C(=O)N[C@@H](C)C(=O)O	> 64 µg/mL	> 64 µg/mL	0%	> 170 µg/mL
CC[C@H](C)[C@@H](NC(=O)[C@@H](NC(=O)[C@H](CCC(=O)O)NC(=O)[C@H](Cc1ccccc1)NC(=O)[C@@H](CCN)NC(=O)[C@H](CCN)NC(=O)[C@H](CO)NC(=O)[C@@H](Cc1c[nH]c2ccccc12)NC(=O)[C@@H](CO)NC(=O)CNC(=O)[C@@H](CCN)NC(=O)[C@H](NC(=O)C(C)(C)N)C(C)C)C(C)C)C(=O)N[C@@H](C)C(=O)O	8 µg/mL (≈ 5.41 µM)	8 µg/mL (≈ 5.41 µM)	8.5%	83 µg/mL (≈ 56.1 µM)
CC[C@H](C)[C@@H](NC(=O)[C@@H](NC(=O)[C@H](CCC(=O)O)NC(=O)[C@H](Cc1ccccc1)NC(=O)[C@@H](CCN)NC(=O)[C@H](CCN)NC(=O)[C@H](CO)NC(=O)[C@@H](Cc1c[nH]c2ccccc12)NC(=O)[C@@H](CO)NC(=O)CNC(=O)[C@@H](CCN)NC(=O)[C@H](NC(=O)CN)C(C)C)C(C)C)C(=O)N[C@@H](C)C(=O)O	32 µg/mL (≈ 22 µM)	32 µg/mL (≈ 22 µM)	0%	> 70 µg/mL
CC[C@H](C)[C@@H](NC(=O)[C@@H](NC(=O)[C@H](CC(=O)O)NC(=O)[C@H](Cc1ccccc1)NC(=O)[C@@H](CCN)NC(=O)[C@H](CCN)NC(=O)[C@H](CO)NC(=O)[C@@H](Cc1c[nH]c2ccccc12)NC(=O)[C@@H](CO)NC(=O)CNC(=O)[C@@H](CCN)NC(=O)[C@H](N)C(C)C)C(C)C)C(=O)N[C@@H](C)C(=O)O	64 µg/mL (≈ 46.4 µM)	64 µg/mL (≈ 46.4 µM)	0%	> 170 µg/mL
CC[C@H](C)[C@@H](NC(=O)[C@@H](NC(=O)[C@H](CCC(=O)O)NC(=O)[C@H](Cc1ccccc1)NC(=O)[C@@H](CCN)NC(=O)[C@H](CCN)NC(=O)[C@H](CO)NC(=O)[C@@H](Cc1c[nH]c2ccccc12)NC(=O)[C@@H](CO)NC(=O)CNC(=O)[C@@H](C)NC(=O)[C@H](NC(=O)[C@H](C)N)C(C)C)C(C)C)C(=O)N[C@@H](C)C(=O)O	> 64 µg/mL	64 µg/mL (≈ 44.5 µM)	0.6%	> 170 µg/mL
CC[C@H](C)[C@@H](NC(=O)[C@@H](NC(=O)[C@H](CCC(=O)O)NC(=O)[C@H](Cc1ccccc1)NC(=O)[C@@H](CCN)NC(=O)[C@H](CCN)NC(=O)[C@H](CO)NC(=O)[C@@H](Cc1c[nH]c2ccccc12)NC(=O)[C@@H](CO)NC(=O)CNC(=O)[C@@H](CCN)NC(=O)[C@H](NC(=O)[C@@H](N)CCN)C(C)C)C(C)C)C(=O)N[C@@H](C)C(=O)O	64 µg/mL (≈ 42.8 µM)	64 µg/mL (≈ 42.8 µM)	10%	> 70 µg/mL
CC[C@H](C)[C@@H](NC(=O)[C@@H](NC(=O)[C@H](CCC(=O)O)NC(=O)[C@H](C)NC(=O)[C@@H](CCN)NC(=O)[C@H](CCN)NC(=O)[C@H](CO)NC(=O)[C@@H](Cc1c[nH]c2ccccc12)NC(=O)[C@@H](CO)NC(=O)CNC(=O)[C@@H](CCN)NC(=O)[C@H](NC(=O)[C@H](C)N)C(C)C)C(C)C)C(=O)N[C@@H](C)C(=O)O	> 64 µg/mL	> 64 µg/mL	0%	> 170 µg/mL
CC[C@H](C)[C@@H](NC(=O)[C@@H](NC(=O)[C@H](CCC(=O)O)NC(=O)[C@H](Cc1ccccc1)NC(=O)[C@@H](CCN)NC(=O)[C@H](CCN)NC(=O)[C@H](CO)NC(=O)[C@@H](Cc1c[nH]c2ccccc12)NC(=O)[C@@H](CO)NC(=O)[C@H](C)NC(=O)[C@@H](CCN)NC(=O)[C@H](N)C(C)C)C(C)C)C(=O)N[C@@H](C)C(=O)O	> 64 µg/mL	64 µg/mL (≈ 45.4 µM)	0%	> 170 µg/mL
CC[C@H](C)[C@@H](NC(=O)[C@@H](NC(=O)[C@H](CCC(=O)O)NC(=O)[C@H](Cc1ccccc1)NC(=O)[C@@H](CCN)NC(=O)[C@H](CCN)NC(=O)[C@H](CO)NC(=O)[C@@H](Cc1c[nH]c2ccccc12)NC(=O)[C@@H](CO)NC(=O)CNC(=O)[C@@H](CCN)NC(=O)[C@H](NC(=O)[C@@H](N)CO)C(C)C)C(C)C)C(=O)N[C@@H](C)C(=O)O	32 µg/mL (≈ 21.6 µM)	16 µg/mL (≈ 10.8 µM)	4.2%	> 170 µg/mL
CC[C@H](C)[C@@H](NC(=O)[C@@H](NC(=O)[C@H](CCC(=O)O)NC(=O)[C@H](Cc1ccccc1)NC(=O)[C@@H](CCN)NC(=O)[C@H](CCN)NC(=O)[C@H](CO)NC(=O)[C@@H](C)NC(=O)[C@@H](CO)NC(=O)CNC(=O)[C@@H](CCN)NC(=O)[C@H](N)C(C)C)C(C)C)C(=O)N[C@@H](C)C(=O)O	> 64 µg/mL	> 64 µg/mL	0%	> 170 µg/mL
CC(C)[C@H](NC(=O)[C@H](CCC(=O)O)NC(=O)[C@H](Cc1ccccc1)NC(=O)[C@@H](CCN)NC(=O)[C@H](CCN)NC(=O)[C@H](CO)NC(=O)[C@@H](Cc1c[nH]c2ccccc12)NC(=O)[C@@H](CO)NC(=O)CNC(=O)[C@@H](CCN)NC(=O)[C@H](NC(=O)[C@H](C)N)C(C)C)C(=O)N[C@@H](C(=O)N[C@@H](C)C(=O)O)C(C)(C)C	2 µg/mL (≈ 1.36 µM)	1 µg/mL (≈ 0.682 µM)	71.2%	23 µg/mL (≈ 15.7 µM)
CC[C@H](C)[C@@H](NC(=O)[C@@H](NC(=O)[C@H](CCC(=O)O)NC(=O)[C@H](Cc1ccccc1)NC(=O)[C@@H](CCN)NC(=O)[C@H](CCN)NC(=O)[C@H](CC(=O)O)NC(=O)[C@@H](Cc1c[nH]c2ccccc12)NC(=O)[C@@H](CO)NC(=O)CNC(=O)[C@@H](CCN)NC(=O)[C@H](N)C(C)C)C(C)C)C(=O)N[C@@H](C)C(=O)O	> 64 µg/mL	> 64 µg/mL	0%	> 170 µg/mL
